Here are results for five compounds from patent US12428424B2, “Estrogen receptor-modulating compounds” (RADIUS PHARMACEUTICALS, INC., priority 2019, dated 2025).

In experiment [1] the test system is MCF-7 cells. Description: MCF-7 Proliferation Inhibition Assay (E2-induced proliferation, CellTiterGlo). It is filed as cell-based. The settings on record: Homo sapiens, MCF7, 168 h, 10 pM dose of E2, 7 days incubation. As to the method: Proliferation Assay in MCF-7 and T47 D Cells
MCF-7 and T47D cells were stripped for 3 days in phenol red-free RPMI1640 media containing 10% charcoal-stripped fetal bovine serum (CS-FBS) and 1% Penicillin/streptomycin (P/S). Cells (volume of 90 μl/well) were seeded in 96 well plates at a density of 2500 cells/well for MCF-7 cells and 1500 cells/well for T47D cells. On the following day, plates were treated with the test compounds (10× concentration in media, volume of 10 μl/well added) both in the absence and in the presence of two doses of E2 (10 pM and 1 nM). The cells were incubated with test compounds for 7 days. The viability of the cells was assessed using CellTiterGlo (Promega, Cat #G7573) according to the manufacturer's instructions. Growth inhibition curves and IC50 values were calculated using the GraphPadPrism 6.0 software. Data values shown in Table 1 were obtained using the 10 pM dose of E2.

Experiment [2] concerns E2-induced increase in uterine weight. The experiment in a line: Immature rat uterine assay. The format is in vivo, Sprague-Dawley rat. Conditions: immature rats, oral dose of 3 mg/kg in combination with E2 (0.01 mg/kg), once daily for three days. How it is done:
Immature Rat Uterine Assay
Sprague-Dawley rat pups were weaned at 19 days of age, randomized into groups (n=6), and administered vehicle (aqueous 20% HPBCD, 10% PEG400 in H2O), E2 (0.01 mg/kg), test compounds (0.1 mg/kg-3 mg/kg) in combination with E2 (0.01 mg/kg), either by subcutaneous injection or by oral gavage, once daily for three consecutive days. Twenty-four hours after the final dose, all animals were killed by carbon dioxide inhalation. Body weights and wet uterine weights were recorded for each animal. GraphPadPrism 6.0 software was used to analyze data.

Consider `Cc1ccccc1-c1c(F)c2c3cn[nH]c3ccc2n1Cc1ccc(CCNCCCF)cc1F` [Compound D-105, 3-fluoro-N-(3-fluoro-4-((8-fluoro-7-(o-tolyl)pyrrolo[3,2-e]indazol-6(3H)-yl)methyl)phenethyl)propan-1-amine], for which, in experiment [1], the IC50 was < 1 nM. Also, in experiment [2], the wet uterine weight result is listed as “suppressed wet uterine weight to baseline”.

On to `Cc1ccccc1-c1cc2c3c(F)n[nH]c3ccc2n1Cc1ccc(CCNCCCF)cc1F` [Compound D-108, 3-Fluoro-N-(3-fluoro-4-((1-fluoro-7-(o-tolyl)pyrrolo[3,2-e]indazol-6(3H)-yl)methyl)phenethyl)propan-1-amine], for which the IC50 in experiment [1] was < 1 nM.

As to `Cc1ccccc1-c1c(Cl)c2c3cn[nH]c3ccc2n1Cc1ccc(CCNCCCF)cc1` [Compound D-109, N-(4-((8-Chloro-7-(o-tolyl)pyrrolo[3,2-e]indazol-6(3H)-yl)methyl)phenethyl)-3-fluoropropan-1-amine], the IC50 in experiment [1] is < 1 nM.

For `Cc1ccccc1-c1c(F)c2c3c(F)n[nH]c3ccc2n1Cc1ccc(CCNCCCF)cc1` [Compound D-107, N-(4-((1,8-difluoro-7-(o-tolyl)pyrrolo[3,2-e]indazol-6(3H)-yl)methyl)phenethyl)-3-fluoropropan-1-amine], the IC50 in experiment [1] was < 1 nM.

With `Cc1ccccc1-c1c(F)c2c3cn[nH]c3ccc2n1Cc1c(F)cc(CCNCCCF)cc1F` [Compound D-106, N-(3,5-difluoro-4-((8-fluoro-7-(o-tolyl)pyrrolo[3,2-e]indazol-6(3H)-yl)methyl)phenethyl)-3-fluoropropan-1-amine], the 50% inhibitory concentration (IC50) in experiment [1] is < 1 nM.
